Our source for the Ki values is publication PMC3653958, “Identification of Functionally Distinct Na-HCO3 Co-Transporters in Colon” (PLoS ONE, 2013).

This experiment has as its target T1, NBCe1B/C (electrogenic Na-HCO3 cotransporter) (Rattus norvegicus, UniProt Q9JI66).
T1 construct: gene Slc4a4; native transporter in basolateral membrane vesicles of rat proximal colon (amiloride-insensitive component)
T1 sequence (Q9JI66 1-1079): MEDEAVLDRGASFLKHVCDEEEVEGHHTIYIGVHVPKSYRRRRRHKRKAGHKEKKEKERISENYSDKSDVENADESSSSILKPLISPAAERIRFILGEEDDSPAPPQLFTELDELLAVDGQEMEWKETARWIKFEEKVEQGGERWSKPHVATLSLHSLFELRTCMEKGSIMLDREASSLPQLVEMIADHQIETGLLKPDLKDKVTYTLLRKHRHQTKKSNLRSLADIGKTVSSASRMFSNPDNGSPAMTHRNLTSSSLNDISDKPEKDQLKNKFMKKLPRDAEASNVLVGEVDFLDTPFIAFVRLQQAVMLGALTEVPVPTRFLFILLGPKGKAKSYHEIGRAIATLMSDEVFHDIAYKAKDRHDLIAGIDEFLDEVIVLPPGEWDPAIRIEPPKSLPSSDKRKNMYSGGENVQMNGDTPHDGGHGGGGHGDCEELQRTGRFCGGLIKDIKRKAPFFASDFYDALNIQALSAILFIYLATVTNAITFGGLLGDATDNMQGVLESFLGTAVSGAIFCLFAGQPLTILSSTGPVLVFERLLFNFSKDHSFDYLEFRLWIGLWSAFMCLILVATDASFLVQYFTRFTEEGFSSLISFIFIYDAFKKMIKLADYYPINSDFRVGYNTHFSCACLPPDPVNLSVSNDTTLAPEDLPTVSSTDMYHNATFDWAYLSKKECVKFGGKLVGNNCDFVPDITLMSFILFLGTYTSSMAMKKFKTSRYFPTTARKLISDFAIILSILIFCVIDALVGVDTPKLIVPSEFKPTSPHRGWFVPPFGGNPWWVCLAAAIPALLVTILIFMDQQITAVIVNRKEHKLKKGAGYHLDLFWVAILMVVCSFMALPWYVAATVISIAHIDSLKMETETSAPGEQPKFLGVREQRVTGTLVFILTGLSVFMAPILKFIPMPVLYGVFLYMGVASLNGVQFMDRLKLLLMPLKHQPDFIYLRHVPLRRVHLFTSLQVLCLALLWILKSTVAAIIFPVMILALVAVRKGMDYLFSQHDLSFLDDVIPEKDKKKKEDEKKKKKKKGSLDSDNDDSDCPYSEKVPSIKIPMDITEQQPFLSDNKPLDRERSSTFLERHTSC
As to the kind of experiment: inhibition of proton/HCO3 gradient-driven […] uptake in native membrane vesicles. It counts as biochemical.

Usually Ki stands for a dissociation constant, usually derived from enzyme kinetics or from competition with a known ligand. A higher Ki goes with a looser hold on the target. Compound `O=S(=O)(O)c1cc(N=C=S)ccc1/C=C/c1ccc(N=C=S)cc1S(=O)(=O)O` [DIDS] returned a Ki of 8.9 ± 1.2 µM.
